Data taken from patent US5002952A, “Readily absorbed pharmaceutical composition” (priority 1986, dated 1991).

Test system: L-1210 leukemia cells
Experiment: Antitumour activities (survival of BDF1 mice inoculated intraperitoneally with L-1210 leukemia cells, oral test drug)
Method: To BDF1 mice (male, 20-22 g), L-1210 leukemia cells were intraperitoneally inoculated in an amount of 1×10^6 cells/mouse. One day later and 4 days later, a test drug was orally administered. […] Therefore, in this test, Compound No. 3, and a 10 w/v% HCO60 solution were mixed, and pulverized in a wet system to obtain a liquid suspension, and the liquid suspension was administered to each mouse in an amount of 0.5 ml.
The activity was evaluated by a survival rate [T/C (%)]as compared with a control group to which a physiological saline was administered, and T/C values are shown in Table 2.

O=C(NC(=O)c1ccccc1[N+](=O)[O-])Nc1ccc(Oc2ncc(Br)cn2)c(Cl)c1 [Compound No. 3]
toxicity (T/C) (high dose region, composition wet pulverized with HCO60): less than 100%
antitumour activity (in words) (wet pulverized in the absence of HCO60, same dose): no substantial antitumour activity was observed
antitumour activity (in words) (wet pulverized together with the specific substance (HCO60)): adequate antitumour activity
